Experimental data from PubChem BioAssay AID248 (DTP/NCI, 2004).
Inconclusive results and toxic doses are left out. Cut-off read from the data, not from the text of the source: active = T/C of 150% or more; inactive = T/C below 125%.

Test system: L1210 leukemia ip in BDF1 mice, survival T/C
Assay: NCI In Vivo Anticancer Drug Screen. Data for tumor model L1210 Leukemia (intraperitoneal) in B6D2F1 (BDF1) mice
Conditions: endpoint: mean survival time, higher = longer survival
Method in brief: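 Mice bearing the transplanted tumor received compound or vehicle. Survival of the treated group was divided by that of the vehicle-treated control group to give the ratio.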

[1] = dose: 50.0 mg/kg/injection, schedule: Q01DX009 (ip), vehicle: Klucel (hydroxypropylcellulose) (HPC)
[2] = dose: 100.0 mg/kg/injection, schedule: Q04DX003 (ip), vehicle: Klucel (hydroxypropylcellulose) (HPC)
[3] = dose: 200.0 mg/kg/injection, schedule: Q04DX003 (ip), vehicle: Klucel (hydroxypropylcellulose) (HPC)
[4] = dose: 400.0 mg/kg/injection, schedule: Q04DX003 (ip), vehicle: Klucel (hydroxypropylcellulose) (HPC)
[5] = dose: 100.0 mg/kg/injection, schedule: Q01DX009 (ip), vehicle: Klucel (hydroxypropylcellulose) (HPC)
[6] = dose: 200.0 mg/kg/injection, schedule: Q01DX009 (ip), vehicle: Klucel (hydroxypropylcellulose) (HPC)
[7] = dose: 100.0 mg/kg/injection, schedule: Q01DX001 (ip), vehicle: Klucel (hydroxypropylcellulose) (HPC)
[8] = dose: 200.0 mg/kg/injection, schedule: Q01DX001 (ip), vehicle: Klucel (hydroxypropylcellulose) (HPC)
[9] = dose: 400.0 mg/kg/injection, schedule: Q01DX001 (ip), vehicle: Klucel (hydroxypropylcellulose) (HPC)
[10] = dose: 100.0 mg/kg/injection, schedule: Q04DX002 (ip), vehicle: Klucel (hydroxypropylcellulose) (HPC)
[11] = dose: 400.0 mg/kg/injection, schedule: Q01DX009 (ip), vehicle: Klucel (hydroxypropylcellulose) (HPC)

Measured: T/C

C=CCNC(=S)Nc1cccc(Cl)c1C
inactive: dose: 12.5 mg/kg/injection, schedule: Q01DX009 (ip), vehicle: Klucel (hydroxypropylcellulose) (HPC) 87 % of control | dose: 25.0 mg/kg/injection, schedule: Q01DX009 (ip), vehicle: Klucel (hydroxypropylcellulose) (HPC) 101 % of control | [1] 96 % of control | [2] 90 % of control | [3] 100 % of control | [4] 94 % of control

O=C1OC(=O)C2=C1C1C3C=CCC3C2N2C=CC=CC12 (configuration not stated)
inactive: [1] 96 % of control | [5] 103 % of control | [6] 103 % of control

C(=N\n1cnnc1)/c1ccc2c(c1)CCC2
inactive: dose: 100.0 mg/kg/injection, schedule: Q04DX003 (ip), vehicle: saline with Tween-80 94 % of control | dose: 200.0 mg/kg/injection, schedule: Q04DX003 (ip), vehicle: saline with Tween-80 112 % of control | dose: 400.0 mg/kg/injection, schedule: Q04DX003 (ip), vehicle: saline with Tween-80 98 % of control

Cc1ccn(-c2ccccc2)n1
inactive: dose: 100.0 mg/kg/injection, schedule: Q01DX009 (ip), vehicle: other 100 % of control | dose: 100.0 mg/kg/injection, schedule: Q04DX003 (ip), vehicle: other 101 % of control | dose: 200.0 mg/kg/injection, schedule: Q01DX009 (ip), vehicle: other 90 % of control | dose: 200.0 mg/kg/injection, schedule: Q04DX003 (ip), vehicle: other 104 % of control | dose: 400.0 mg/kg/injection, schedule: Q01DX009 (ip), vehicle: other 107 % of control | dose: 400.0 mg/kg/injection, schedule: Q04DX003 (ip), vehicle: other 104 % of control

CC1(C)CC2CCC1(Cl)CC2Cl (configuration not stated)
inactive: dose: 50.0 mg/kg/injection, schedule: Q01DX009 (ip), vehicle: saline + alcohol 100 % of control | dose: 100.0 mg/kg/injection, schedule: Q01DX009 (ip), vehicle: saline + alcohol 93 % of control

O=[N+]([O-])c1cccc(N=Cc2ccccc2O)c1
inactive: [7] 93 % of control | [8] 88 % of control | [9] 88 % of control

CCCCCCCCCCCCCCC(F)C(=O)OC (configuration not stated)
inactive: dose: 100.0 mg/kg/injection, schedule: Q01DX009 (sc), vehicle: olive oil, sesame oil, peanut oil 94 % of control | dose: 100.0 mg/kg/injection, schedule: Q04DX003 (sc), vehicle: olive oil, sesame oil, peanut oil 102 % of control | dose: 200.0 mg/kg/injection, schedule: Q04DX003 (sc), vehicle: olive oil, sesame oil, peanut oil 113 % of control | dose: 400.0 mg/kg/injection, schedule: Q04DX003 (sc), vehicle: olive oil, sesame oil, peanut oil 109 % of control

CCCCCCCC(C)NCCCO (configuration not stated)
inactive: dose: 75.0 mg/kg/injection, schedule: Q01DX001 (ip), vehicle: saline 90 % of control

COC(C#N)C(O)(c1ccccc1)c1ccccc1 (configuration not stated)
inactive: dose: 75.0 mg/kg/injection, schedule: Q01DX001 (ip), vehicle: other 94 % of control | dose: 150.0 mg/kg/injection, schedule: Q01DX001 (ip), vehicle: other 100 % of control

CCCP(C)(=S)CCC
inactive: dose: 25.0 mg/kg/injection, schedule: Q04DX002 (ip), vehicle: Klucel (hydroxypropylcellulose) (HPC) 112 % of control | dose: 50.0 mg/kg/injection, schedule: Q04DX002 (ip), vehicle: Klucel (hydroxypropylcellulose) (HPC) 108 % of control | [10] 112 % of control

CCSC(=O)N1C=Cc2ccccc2C1C#N (configuration not stated)
inactive: [7] 95 % of control | [5] 95 % of control | [8] 90 % of control | [6] 95 % of control | [9] 101 % of control | [11] 108 % of control

OC1COCOC1 (tested in a mixture with another compound)
inactive: dose: 100.0 mg/kg/injection, schedule: Q01DX009 (ip), vehicle: saline 104 % of control | dose: 100.0 mg/kg/injection, schedule: Q04DX003 (ip), vehicle: saline 105 % of control | dose: 200.0 mg/kg/injection, schedule: Q01DX009 (ip), vehicle: saline 104 % of control | dose: 200.0 mg/kg/injection, schedule: Q04DX003 (ip), vehicle: saline 102 % of control | dose: 400.0 mg/kg/injection, schedule: Q01DX009 (ip), vehicle: saline 111 % of control | dose: 400.0 mg/kg/injection, schedule: Q04DX003 (ip), vehicle: saline 109 % of control

CCCC1OC(C)C(C)O1 (configuration not stated)
inactive: [1] 101 % of control | [5] 101 % of control | [6] 101 % of control

Cc1ccc(S(=O)(=O)O)cn1
inactive: dose: 100.0 mg/kg/injection, schedule: Q01DX001 (ip), vehicle: saline 94 % of control | dose: 200.0 mg/kg/injection, schedule: Q01DX001 (ip), vehicle: saline 97 % of control | dose: 400.0 mg/kg/injection, schedule: Q01DX001 (ip), vehicle: saline 92 % of control

COc1ccc2c(c1)CCC(CC(C)=O)C2=O (configuration not stated)
inactive: dose: 100.0 mg/kg/injection, schedule: Q04DX003 (ip), vehicle: saline sonified 99 % of control | dose: 200.0 mg/kg/injection, schedule: Q04DX003 (ip), vehicle: saline sonified 90 % of control | dose: 400.0 mg/kg/injection, schedule: Q04DX003 (ip), vehicle: saline sonified 89 % of control

NC(N)=N/N=C/C(N)(/C=N/N=C(N)N)/C=N/N=C(N)N
inactive: dose: 120.0 mg/kg/injection, schedule: Q01DX Z (oral), vehicle: saline 106 % of control | dose: 240.0 mg/kg/injection, schedule: Q01DX Z (oral), vehicle: saline 114 % of control | dose: 480.0 mg/kg/injection, schedule: Q01DX Z (oral), vehicle: saline 113 % of control | dose: 960.0 mg/kg/injection, schedule: Q01DX Z (oral), vehicle: saline 106 % of control

c1cc2c(c3c1CCCC3)CCC1CCCCC21 (configuration not stated)
inactive: dose: 100.0 mg/kg/injection, schedule: Q01DX001 (ip), vehicle: carboxymethylcellulose (CMC) 103 % of control | dose: 200.0 mg/kg/injection, schedule: Q01DX001 (ip), vehicle: carboxymethylcellulose (CMC) 95 % of control | dose: 400.0 mg/kg/injection, schedule: Q01DX001 (ip), vehicle: carboxymethylcellulose (CMC) 97 % of control

CCO/C=C1\SC(=S)N(c2ccc(OCC)cc2)C1=O
inactive: [5] 98 % of control | [2] 98 % of control | [6] 95 % of control | [3] 98 % of control | [11] 98 % of control | [4] 97 % of control

O=CNC1CCCCC1
inactive: dose: 20.0 mg/kg/injection, schedule: Q01DX009 (ip), vehicle: saline with Tween-80 93 % of control | dose: 40.0 mg/kg/injection, schedule: Q01DX001 (ip), vehicle: saline with Tween-80 100 % of control | dose: 40.0 mg/kg/injection, schedule: Q01DX009 (ip), vehicle: saline with Tween-80 93 % of control | dose: 80.0 mg/kg/injection, schedule: Q01DX001 (ip), vehicle: saline with Tween-80 100 % of control | dose: 80.0 mg/kg/injection, schedule: Q01DX009 (ip), vehicle: saline with Tween-80 91 % of control

COc1cc(/C=N/NC(=O)Cc2cccc3ccccc23)ccc1O
inactive: [5] 109 % of control | [10] 107 % of control | [6] 93 % of control | dose: 200.0 mg/kg/injection, schedule: Q04DX002 (ip), vehicle: Klucel (hydroxypropylcellulose) (HPC) 104 % of control | [11] 98 % of control | dose: 400.0 mg/kg/injection, schedule: Q04DX002 (ip), vehicle: Klucel (hydroxypropylcellulose) (HPC) 96 % of control

O=C1c2cccc3cccc(c23)C(=O)N1NCCO
inactive: [5] 93 % of control | [6] 89 % of control

Cn1c2c(c(=O)n(C)c1=O)CC(=O)N2
inactive: [1] 100 % of control | [5] 103 % of control
